We go through eight compounds from US6720324B2, “Selective melanin concentrating hormone-1 (MCH1) receptor antagonists and uses thereof” (Synaptic Pharmaceutical Corporation, priority 2000, dated 2004).

Read-outs that look alike come from different tables or passages of the source. Ends that are not written are not given here. Where only a bound is given, the exact number is not on record here.

One test deals with T1, rat 5-HT2C receptor (Rattus norvegicus, UniProt P08909).
T1 construct: expressed in transfected cells
T1 sequence (P08909 33-460): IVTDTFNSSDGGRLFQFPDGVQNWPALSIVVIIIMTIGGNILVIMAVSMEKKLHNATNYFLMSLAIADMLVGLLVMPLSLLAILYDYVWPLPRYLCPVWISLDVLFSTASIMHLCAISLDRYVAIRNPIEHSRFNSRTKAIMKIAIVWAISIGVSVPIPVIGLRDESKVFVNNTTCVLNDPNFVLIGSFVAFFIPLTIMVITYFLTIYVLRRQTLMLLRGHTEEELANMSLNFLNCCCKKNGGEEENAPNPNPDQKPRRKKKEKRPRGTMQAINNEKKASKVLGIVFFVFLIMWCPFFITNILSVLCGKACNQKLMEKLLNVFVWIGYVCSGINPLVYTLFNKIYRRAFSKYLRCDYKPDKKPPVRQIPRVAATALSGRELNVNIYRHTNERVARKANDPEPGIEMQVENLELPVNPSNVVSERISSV
The experiment in a line: Radioligand binding assay, cloned receptor. The settings on record: Table 2; read-out: r5HT2C Ki. As for the experimental part:
(§1) For binding assays, pellets of transfected cells are suspended in ice-cold buffer (20 mM Tris.HCl, 5 mM EDTA, pH 7.4) and homogenized by sonication for 7 sec. The cell lysates are centrifuged at 200×g for 5 min at 4° C. The supernatants are then centrifuged at 40,000×g for 20 min at 4° C. The resulting pellets are washed once in the homogenization buffer and suspended in binding buffer (see methods for radioligand binding). Protein concentrations are determined by the method of Bradford (1976) using bovine serum albumin as the standard. Binding assays are usually performed immediately, however it is possible to prepare membranes in batch and store frozen in liquid nitrogen for future use.
(§2) The methods to obtain the cDNA of the human NPY1, NPY5, GALR1, GALR2, and GALR3 and rat 5-HT2C receptors, express said receptors in heterologous systems, and carry out assays to determine binding affinity are described in the following publications and above: human NPY1 (Larhammar et al., 1992), human NPY5 (U.S. Pat. No. 5,602,024, the disclosure of which is hereby incorporated by reference in its entirety into this application), human Gal1 (Habert-Ortoli et al., 1994), human Gal2 (Smith et al., 1997), human Gal3 (Smith et al., 1998), and rat 5-HT2C (Julius et al., 1988).

In test [1] the target is T2, human MCH1 receptor (Homo sapiens, UniProt Q99705). The experiment in a line: Functional assay: intracellular calcium mobilization (antagonist potency Kb). The format is cell-based. More on the design: expressed in transfected cells; host or cells: COS-7 cells, transient, DEAE-dextran, plasmid pEXJ.HR-TL231 (ATCC 203197). As for the experimental part: Intracellular calcium mobilization assays for the MCH1 receptor were carried out using plasmid pEXJ.HR-TL231 (ATCC Accession No. 203197). COS-7 cells were transiently transfected with DNA encoding the MCH1 receptor utilizing the DEAE-dextran method as described above. The intracellular free calcium concentration was measured by fluorescent imaging using the calcium sensitive fluorscent dye Fluo-3. COS-7 cells expressing the human MCH1 receptor were seeded onto sterile 96 well plates, washed with Hank's balanced salt solution (HBSS), containing 20 mM HEPES, 2.5 mM probenecid, and 0.1% BSA, and loaded with the same buffer containing 3.8 μM Fluo-3 for 1 hour at 37° C. After washing with HBSS to remove the fluo-3 solution, cells were equilibrated for 10 minutes.

Test [2] has as its target T2, human MCH1 receptor. Nature of the test: Radioligand competition binding with [3H]Compound 10, membranes of A293 cells. The settings on record: Table 3, A293 cell membranes, [3H]Compound 10 as radioligand, read-out: hMCH1 * Ki. On the procedure:
as §1
Radioligand binding assays for the MCH1 receptor were carried out using plasmid pEXJ.HR-TL231 (ATCC Accession No. 203197). Plasmid pEXJ.HR-TL231 comprises the regulatory elements necessary for expression of DNA in a mammalian cell operatively linked to DNA encoding the human MCH1 receptor so as to permit expression thereof. Plasmid pEXJ.HR-TL231 was deposited on Sep. 17, 1998, with the American Type Culture Collection (ATCC), 12301 Parklawn Drive, Rockville, Md. 20852, U.S.A. under the provisions of the Budapest Treaty for the International Recognition of the Deposit of Microorganisms for the Purposes of Patent Procedure and was accorded ATCC Accession No. 203197. […]

In the next test the target is T3, human NPY1 (Homo sapiens, UniProt P25929).
T3 construct: expressed in transfected cells
T3 sequence (P25929 1-384): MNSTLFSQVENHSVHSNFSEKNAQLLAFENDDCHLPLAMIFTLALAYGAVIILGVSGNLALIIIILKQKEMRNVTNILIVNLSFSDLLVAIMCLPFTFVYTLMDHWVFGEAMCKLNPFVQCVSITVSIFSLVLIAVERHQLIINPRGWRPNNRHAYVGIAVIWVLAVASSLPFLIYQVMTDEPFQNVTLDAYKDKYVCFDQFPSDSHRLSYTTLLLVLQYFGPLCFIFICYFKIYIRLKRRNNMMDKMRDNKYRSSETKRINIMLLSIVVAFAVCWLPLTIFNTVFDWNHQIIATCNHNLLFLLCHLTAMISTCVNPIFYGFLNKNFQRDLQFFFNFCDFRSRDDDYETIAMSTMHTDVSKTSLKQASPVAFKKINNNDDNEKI
The experiment in a line: Radioligand binding assay, cloned receptor. To be noted: Table 2; read-out: hNPY1 Ki. On the procedure:
as §1, §2

The next test concerns the target T4, human GALR1 (Homo sapiens, UniProt P47211).
T4 construct: expressed in transfected cells
T4 sequence (P47211 1-349): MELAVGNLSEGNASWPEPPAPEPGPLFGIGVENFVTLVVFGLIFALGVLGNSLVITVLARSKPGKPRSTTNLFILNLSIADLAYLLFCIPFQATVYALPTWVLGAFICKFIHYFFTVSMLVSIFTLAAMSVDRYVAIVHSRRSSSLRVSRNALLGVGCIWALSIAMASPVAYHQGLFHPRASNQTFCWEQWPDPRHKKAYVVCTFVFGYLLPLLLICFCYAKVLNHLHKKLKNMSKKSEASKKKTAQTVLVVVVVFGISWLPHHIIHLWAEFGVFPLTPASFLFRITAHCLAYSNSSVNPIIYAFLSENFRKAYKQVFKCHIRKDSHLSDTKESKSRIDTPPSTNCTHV
Nature of the test: Radioligand binding assay, cloned receptor. The settings on record: Table 2; read-out: hGALR1 Ki. As for the experimental part:
as §1, §2

The target in the next test is T5, human GALR2 (Homo sapiens, UniProt O43603).
T5 construct: expressed in transfected cells
T5 sequence (O43603 1-387): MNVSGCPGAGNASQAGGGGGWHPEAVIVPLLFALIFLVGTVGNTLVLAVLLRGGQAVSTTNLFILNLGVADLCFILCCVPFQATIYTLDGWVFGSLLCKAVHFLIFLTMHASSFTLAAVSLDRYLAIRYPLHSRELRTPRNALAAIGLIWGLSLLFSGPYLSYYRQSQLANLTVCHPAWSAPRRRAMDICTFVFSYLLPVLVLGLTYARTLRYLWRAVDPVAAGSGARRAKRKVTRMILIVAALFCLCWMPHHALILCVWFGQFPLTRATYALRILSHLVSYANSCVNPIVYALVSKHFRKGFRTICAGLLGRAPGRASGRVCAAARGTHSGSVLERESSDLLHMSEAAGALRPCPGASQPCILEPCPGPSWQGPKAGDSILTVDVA
Nature of the test: Radioligand binding assay, cloned receptor. To be noted: Table 2; read-out: hGALR2 Ki. On the procedure: as §1, §2

The next test addresses T6, human GALR3 (Homo sapiens, UniProt O60755).
T6 construct: expressed in transfected cells
T6 sequence (O60755 1-368): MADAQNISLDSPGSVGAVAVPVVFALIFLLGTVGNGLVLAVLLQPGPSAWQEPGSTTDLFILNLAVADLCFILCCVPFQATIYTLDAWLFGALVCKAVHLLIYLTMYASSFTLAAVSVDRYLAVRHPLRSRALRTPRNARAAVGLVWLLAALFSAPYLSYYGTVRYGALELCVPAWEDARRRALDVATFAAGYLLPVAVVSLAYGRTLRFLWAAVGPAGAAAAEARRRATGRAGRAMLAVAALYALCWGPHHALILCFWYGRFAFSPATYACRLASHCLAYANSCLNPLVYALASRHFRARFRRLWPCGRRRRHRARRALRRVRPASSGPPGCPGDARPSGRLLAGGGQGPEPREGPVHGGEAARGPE
The experiment in a line: Radioligand binding assay, cloned receptor. The settings on record: Table 2; read-out: hGALR3 Ki. As for the experimental part: as §1, §2

The next test addresses T7, human NPY5 (Homo sapiens, UniProt Q15761).
T7 construct: expressed in transfected cells
T7 sequence (Q15761 1-445): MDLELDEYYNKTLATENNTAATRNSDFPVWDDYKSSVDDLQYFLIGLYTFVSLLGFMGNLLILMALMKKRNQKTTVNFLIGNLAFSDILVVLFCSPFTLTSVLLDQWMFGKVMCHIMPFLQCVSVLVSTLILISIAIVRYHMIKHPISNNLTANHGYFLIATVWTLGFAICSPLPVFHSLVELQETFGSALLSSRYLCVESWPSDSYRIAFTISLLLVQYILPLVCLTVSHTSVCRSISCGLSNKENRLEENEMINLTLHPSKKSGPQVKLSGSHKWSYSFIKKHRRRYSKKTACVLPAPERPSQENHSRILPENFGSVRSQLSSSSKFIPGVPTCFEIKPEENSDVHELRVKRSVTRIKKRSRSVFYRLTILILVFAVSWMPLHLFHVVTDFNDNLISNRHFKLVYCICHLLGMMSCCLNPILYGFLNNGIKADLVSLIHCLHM
The experiment in a line: Radioligand binding assay, cloned receptor. The settings on record: Table 2; read-out: hNPY5 Ki. As for the experimental part: as §1, §2

The subject of another test is G4F-7 cells. To be noted: cited from earlier work; for Ki: inhibition of radioiodinated [Phe13,Tyr19]-MCH binding.
The mark [3] stands for this setting: Table 1, cloned human MCH1 receptor, functional assay, read-out: Kb (nM) hMCH1.
Setting [4] is: Table 2, antagonist potency at the human MCH1 receptor, read-out: hMCH1 Kb.

T2 sequence (Q99705 whole entry): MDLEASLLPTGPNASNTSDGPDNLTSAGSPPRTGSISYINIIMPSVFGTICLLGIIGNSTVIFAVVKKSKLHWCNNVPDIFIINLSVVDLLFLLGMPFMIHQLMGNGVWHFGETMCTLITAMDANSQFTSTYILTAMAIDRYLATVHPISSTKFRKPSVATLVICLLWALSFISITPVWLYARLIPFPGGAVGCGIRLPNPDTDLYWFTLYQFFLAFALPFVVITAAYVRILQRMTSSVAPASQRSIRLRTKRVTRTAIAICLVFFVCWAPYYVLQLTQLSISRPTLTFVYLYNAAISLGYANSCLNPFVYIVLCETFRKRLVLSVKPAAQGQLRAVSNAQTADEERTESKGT

`COCC1=C(C(=O)OC)C(c2ccc(F)c(F)c2)N(C(=O)NCCCN2CCC(c3cccc(NC(C)=O)c3)CC2)C(=O)N1` (single isomer, unassigned; (+)) [Example 10, (+)-1,2,3,6-TETRAHYDRO-1-{N-[4-(3,-ACETAMIDO)-PHENYL-PIPERIDIN-1-YL]PROPYL}CARBOXAMIDO-4-METHOXYMETHYL-6-(3,4-DIFLUORO-PHENYL)-2-OXOPYRIMIDINE-5-CARBOXYLIC ACID METHYL ESTER]: the inhibition constant Ki on rat 5-HT2C receptor amounted to 29600 nM; at human MCH1 receptor [2], 0.08 nM. Further, the Kb at human MCH1 receptor [1] (setting [3]) came out at 0.3 nM.

In the case of `CCN1c2ccc(/C=C3\SC(=S)NC3=O)cc2C(C)=CC1(C)C` [Example 25], at human NPY1, the Ki was greater than 50000 nM. Also, the Kb on human MCH1 receptor [1] (setting [3]) and on human MCH1 receptor [1] (setting [4]) was 126 nM in each case.

Consider `O=C(CCCN1CCC(NC(=O)c2ccccc2)CC1)c1ccc(Cl)cc1` [Example 28, 1-[3-(4-CHLOROBENZOYL)]PROPYL-4-BENZAMIDOPIPERIDINE], for which the Ki at human NPY1 is greater than 50000 nM. The Kb at human MCH1 receptor [1] (setting [3]) and on human MCH1 receptor [1] (setting [4]) was 60 nM in each case.

Turning to `CCCCc1ccc(-c2cc(=O)[nH]c3[nH]c(=O)[nH]c(=O)c23)s1` [Example 37, 5-(5-BUTYL-2-THIENYL)PYRIDO[2,3-d]PYRIMIDINE-2,4,7(1H,3H,8H)-TRIONE], the inhibition constant (Ki) on human NPY1, at human GALR1, on human GALR2, at rat 5-HT2C receptor, at human GALR3 and on human NPY5 was greater than 50000 nM each time. Also, the Kb at human MCH1 receptor [1] (setting [3]) and at human MCH1 receptor [1] (setting [4]) was 162 nM throughout.

As for “Melanin-concentrating hormone [native MCH]”, the Ki with G4F-7 cells was 12 nM.

For “[Phe^13,Tyr^19]-MCH: radioiodinated MCH analogue; the ligand retained biological activity and exhibited specific binding to a variety of cell lines”, the Kd in the test on G4F-7 cells (radioiodinated ligand, G4F-7 cells) was 0.118 nM.

“rat ANF: rat ANF, weakly inhibited binding of the radioiodinated MCH analogue (SLRRSSCFGGRIDRIGAQSGLGCNSFRY; ends and bridges not checked; cysteine pairing not given here; UniProt P01161 123-150, looked up)”: the Ki in the test with G4F-7 cells is 116 nM.

For α-MSH, the inhibition of binding entry with G4F-7 cells (radioiodinated [Phe13,Tyr19]-MCH binding) is reported as “not inhibited”.
